From ChEMBL document CHEMBL3621051, “Design and synthesis of 4-benzyl-1-(2H)-phthalazinone derivatives as novel androgen receptor antagonists” (Eur J Med Chem, 2015)

Each compound was assayed against Androgen receptor (Mus musculus) (UniProt P19091) (assay: Antagonist activity at wild type AR expressed in mouse SC-3 cells assessed as inhibition of 1 nM DHT-induced cell proliferation after 3 days by WST-8 assay).
Chain of Androgen receptor (Mus musculus) (P19091 whole entry, looked up): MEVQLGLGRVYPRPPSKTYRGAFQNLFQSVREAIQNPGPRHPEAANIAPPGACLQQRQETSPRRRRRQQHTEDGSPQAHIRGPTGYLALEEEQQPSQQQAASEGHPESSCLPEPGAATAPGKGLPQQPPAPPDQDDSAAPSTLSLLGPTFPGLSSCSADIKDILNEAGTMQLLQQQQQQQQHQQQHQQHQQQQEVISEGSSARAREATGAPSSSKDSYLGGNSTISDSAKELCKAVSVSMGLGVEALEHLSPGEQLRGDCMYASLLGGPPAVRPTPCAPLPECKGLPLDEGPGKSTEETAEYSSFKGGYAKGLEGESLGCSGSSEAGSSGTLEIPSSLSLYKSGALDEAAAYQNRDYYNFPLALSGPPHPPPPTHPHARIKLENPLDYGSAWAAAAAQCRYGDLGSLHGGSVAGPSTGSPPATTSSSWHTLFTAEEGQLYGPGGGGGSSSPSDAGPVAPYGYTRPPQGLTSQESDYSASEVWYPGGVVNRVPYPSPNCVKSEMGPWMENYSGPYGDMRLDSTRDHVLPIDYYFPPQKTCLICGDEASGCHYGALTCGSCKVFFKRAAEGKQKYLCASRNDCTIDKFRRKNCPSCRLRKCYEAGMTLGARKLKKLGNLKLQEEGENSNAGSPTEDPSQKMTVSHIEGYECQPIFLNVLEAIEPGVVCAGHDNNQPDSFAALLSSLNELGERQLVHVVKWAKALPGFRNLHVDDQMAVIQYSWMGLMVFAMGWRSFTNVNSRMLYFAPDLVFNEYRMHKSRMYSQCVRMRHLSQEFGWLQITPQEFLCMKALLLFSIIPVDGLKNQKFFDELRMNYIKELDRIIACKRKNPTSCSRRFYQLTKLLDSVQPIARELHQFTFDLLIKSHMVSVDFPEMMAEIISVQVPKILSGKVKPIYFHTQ

SMILES	IC50
O=[N+]([O-])c1ccc(Cc2nnc(O)c3ccccc23)cc1	Not Active
Nc1ccc(Cc2n[nH]c(=O)c3ccccc23)cc1	Not Active
CC(=O)Nc1ccc(Cc2n[nH]c(=O)c3ccccc23)cc1	Not Active
O=C(Nc1ccc(Cc2n[nH]c(=O)c3ccccc23)cc1)C(F)(F)F	Not Active
CS(=O)(=O)Nc1ccc(Cc2n[nH]c(=O)c3ccccc23)cc1	Not Active
CCN(CC)c1ccc(Cc2n[nH]c(=O)c3ccccc23)cc1	Not Active
CCNc1ccc(Cc2n[nH]c(=O)c3ccccc23)cc1	Not Active
CN(C)c1ccc(Cc2n[nH]c(=O)c3ccccc23)cc1	Not Active
CNc1ccc(Cc2n[nH]c(=O)c3ccccc23)cc1	Not Active
O=C(O)c1ccccc1Cc1n[nH]c(=O)c2ccccc12	Not Active
CC(=O)Nc1ccccc1Cc1n[nH]c(=O)c2ccccc12	Not Active
CS(=O)(=O)Nc1ccccc1Cc1n[nH]c(=O)c2ccccc12	Not Active
